The record followed here is patent publication US20090048269A1 (AstraZeneca AB, priority 2007, published 2009).

The target of test [1] is T1, human ALK5 (Homo sapiens, UniProt P36897).
T1 sequence (P36897 162-503): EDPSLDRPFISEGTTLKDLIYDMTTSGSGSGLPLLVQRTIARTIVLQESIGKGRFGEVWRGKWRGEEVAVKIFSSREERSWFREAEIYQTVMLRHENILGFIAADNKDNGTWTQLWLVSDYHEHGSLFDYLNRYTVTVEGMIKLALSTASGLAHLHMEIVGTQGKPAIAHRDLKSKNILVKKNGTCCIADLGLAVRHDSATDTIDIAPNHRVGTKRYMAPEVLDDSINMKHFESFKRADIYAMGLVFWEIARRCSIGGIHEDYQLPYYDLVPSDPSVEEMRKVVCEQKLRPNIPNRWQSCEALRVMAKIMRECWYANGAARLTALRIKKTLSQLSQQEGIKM
As to the kind of experiment: ALK5 Enzyme Assay 2 (fluorescence polarisation probe displacement). The format is binding. Set-up: 6His tagged human ALK5 (residues162-503) was grown and purified from insect cells; 6His; made in house; host or cells: insect cells. A digest of the protocol: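 Recombinant ALK5 (3 μg/mL) incubated with test compound in 50 mM HEPES pH7.4, 10 mM MgCl2, 1 mM DTT, 0.01% CHAPS. Displacement of a fluorescent quinazoline-based ALK5 probe (50 nM final) in presence of 1 μM ATP read by fluorescence polarisation.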
A general note: In fluorescence polarisation assays a small probe gives low polarisation when free and higher when bound to something large.

The nature of test [2]: IT6 (abbreviation not defined).
Test [3] addresses T1, human ALK5. Put plainly: ALK5 Enzyme Assay 1. It counts as biochemical. Set-up: 6His tagged ALK5 protein (amino acids 162-503) expressed in insect cells; 6His; made in house; host or cells: insect cells. The protocol:
This assay measures the ability of a compound to bind to and inhibit the activity of ALK5 protein in vitro. […] Assay measurements were performed in assay buffer comprising 60 mM HEPES pH 7.4, 3 mM MgCl2, 3 mM MnCl2, 3 μM Na orthovanadate, 1.2 mM DTT and 0.05% PEG2000. […] Reactions were performed in the presence of 200 μg/mL casein (Sigma-Aldrich C4765-10ML), 200 ng/mL ALK5, 0.5 μM ATP (Sigma-Aldrich A7699), 1 μCi/mL γ-33P ATP. Following addition of casein, ATP and compound, reactions were initiated by adding ALK5 enzyme and reactions run for 90 minutes. After incubation reactions were terminated by addition of 20 μL per well of 50% orthophosphoric acid. 20 minutes after addition of 70% v/v TCA, precipitated protein was transferred to GF/C 96 well plates using a Tomtec harvester with 1.5% orthophosphoric acid. […] All reactions were performed under linear kinetics.

Test [4] relates to TGFβ1 mediated smad2 nuclear translocation. Put plainly: Cell Assay (Smad2 Redistribution Assay, MDA-MB-468 Smad2-EGFP cells). The format is cell-based. The conditions noted are these: Homo sapiens, read-out: CAA: cell assay activity. The text has this:
Ligand mediated translocation of R-Smads (Smads 1,2,3,5,8) is a well-documented phenomenon in a variety of cell types. (Derynck, R. and Zhang, Y., 2003, Nature, 425, 577-584, Shi, Y. and Massague, J., 2003, Cell, 113, 685-700). Specifically TGFβ1 and TGFβ3 cause phosphorylation and nuclear translocation of Smad2 and Smad3 transcription factors. Thus compound inhibition of TGFβsignalling can be estimated by measuring cellular distribution of Smad2 or 3 under activated TGFβpathway. The Smad2 Redistribution™ Assay (Fisher BioImage ApS) was used to assess in vitro cellular activity of compounds of interest. The breast adenocarcinoma MDA-MB-468 parent cell line was used to create a recombinant cell line, MDA-MB-468 PS213 I GScl4C8 containing Smad2 fused to the C-terminus of enhanced green fluorescent protein (Smad2-EGFP). This enables monitoring of cellular distribution of Smad2 using high throughput fluorescence microscopy.
This assay measures the ability of compounds to inhibit TGFβ1 mediated smad2 nuclear translocation. Compounds dose ranges were created by diluting in 100% DMSO and then further into assay media (RPMI1640, 1% FCS, 10 mM HEPES pH 7.4). Cells were plated in 96 well Packard View plates at 8×10^3 per well in 100 μL RPMI1640, 10% FCS, 0.5 mg/mL geneticin and grown for 48 hrs. […] Plates were then read on an ArrayScan Vti instrument to determine nuclear to cytoplasmic staining. […]

Where [5] appears, read: read-out: EAA2: activity (μM) using Enzyme Assay 2.
Setting [6] is: read-out: EAA: activity (μM) using Enzyme Assay 1.

`CNC(=O)c1nc(C)ccc1Oc1ccnc(Nc2ccccc2)c1` [Example 97, 3-(2-Anilinopyridin-4-yl)oxy-N,6-dimethylpyridine-2-carboxamide]: in test [1] (setting [5]), the IC50 was 0.348 µM. This compound gave an IT6 in test [2] of 0.9458.
`COc1cc(Nc2cc(Oc3ccc(C)nc3-c3cccc(C)c3)ccn2)cc(OC)c1OC` [Example 57, 4-[6-Methyl-2-(3-methylphenyl)pyridin-3-yl]oxy-N-(3,4,5-trimethoxyphenyl)-pyridin-2-amine]: the IC50 turned out to be 0.0154 µM in test [3] (setting [6]) and 90.4 nM in test [4].
With `Cc1cc(Oc2ccnc(Nc3ccc(S(C)(=O)=O)cc3)c2)c(-c2ccccn2)nc1C` [Example 13, 4-(5,6-Dimethyl-2-pyridin-2-yl-pyridin-3-yl)oxy-N-(4-methylsulfonyl-phenyl)-pyridin-2-amine], the figures for the IC50 in test [1] (setting [5]) and in test [3] (setting [6]) were 0.0103 µM and 0.00853 µM, respectively.
On to `COc1cc(Nc2cc(Oc3cccnc3-c3ccccc3)ccn2)cc(OC)c1OC` [Example 49, 4-(2-Phenylpyridin-3-yl)oxy-N-(3,4,5-trimethoxyphenyl)pyridin-2-amine], for which the IC50 in test [1] (setting [5]) worked out at 0.00804 µM; in test [3] (setting [6]), 0.00782 µM.
Regarding `COc1cc(Nc2cc(Oc3cccnc3Cl)ccn2)cc(OC)c1OC` [Example 53, 4-(2-Chloropyridin-3-yl)oxy-N-(3,4,5-trimethoxyphenyl)pyridin-2-amine], the IC50 was 0.249 µM in test [1] (setting [5]) and 0.481 µM in test [3] (setting [6]).
Turning to `COc1cc(Nc2cc(Oc3ccc(C)nc3)ccn2)cc(OC)c1OC` [Example 8, 4-(6-Methylpyridin-3-yl)oxy-N-(3,4,5-trimethoxyphenyl)-pyridin-2-amine], the results for the IC50 in test [1] (setting [5]) and in test [3] (setting [6]) were 0.294 µM and 0.174 µM, respectively.
For `COc1cc(Nc2cc(Oc3ccc(C)nc3-c3cccc(F)c3)ccn2)cc(OC)c1OC` [Example 56, 4-[2-(3-Fluoro-phenyl)-6-methyl-pyridin-3-yl]oxy-N-(3,4,5-trimethoxy-phenyl)pyridin-2-amine], the IC50 in test [1] (setting [5]) was found to be 0.0795 µM; in test [3] (setting [6]), 0.00379 µM.
For `COc1ccc(S(C)(=O)=O)cc1Nc1cc(Oc2cc(C)c(C)nc2-c2ccccn2)ccn1` [Example 17, 4-(5,6-Dimethyl-2-pyridin-2-yl-pyridin-3-yl)oxy-N-(2-methoxy-5-methylsulfonyl-phenyl)pyridin-2-amine], the IC50 in test [1] (setting [5]) stood at 0.0514 µM; in test [3] (setting [6]) it was 0.0147 µM.
For `Cc1cc(Oc2ccnc(Nc3cc(N4CCOCC4)cc(N4CCOCC4)c3)c2)c(-c2ccccn2)nc1C` [Example 21, 4-(5,6-Dimethyl-2-pyridin-2-yl-pyridin-3-yl)oxy-N-(3,5-dimorpholin-4-ylphenyl)pyridin-2-amine], the results for the IC50 in test [1] (setting [5]) and in test [3] (setting [6]) were 0.125 µM and 0.0772 µM, respectively.
As for `Cc1cc(Oc2ccnc(Nc3cccc(CO)c3)c2)c(-c2ccccn2)nc1C` [Example 38, (3-{[4-(5,6-Dimethyl-2-pyridin-2-yl-pyridin-3-yl)-oxypyridin-2-yl]amino}phenyl)methanol], the figures for the IC50 in test [1] (setting [5]) and in test [3] (setting [6]) were 0.00378 µM and 0.00977 µM, respectively.
Take `COc1ccccc1Nc1cc(Oc2cc(C)c(C)nc2-c2ccccn2)ccn1` [Example 19, 4-(5,6-Dimethyl-2-pyridin-2-yl-pyridin-3-y1)oxy-N-(2-methoxy-phenyl)-pyridin-2-amine]: the figures for the IC50 in test [1] and in test [3] (EAA: activity (μM) using Enzyme Assay 1) were 0.00216 µM and 0.0128 µM, respectively.
On to `COc1cc(Nc2cc(Oc3ccc(C)nc3-c3cnccn3)ccn2)cc(OC)c1OC` [Example 48, 4-(6-Methyl-2-pyrazin-2-yl-pyridin-3-yl)oxy-N-(3,4,5-trimethoxy-phenyl)pyridin-2-amine], for which the values for the IC50 in test [1] (setting [5]) and in test [3] (setting [6]) were 0.0486 µM and 0.0751 µM, respectively.
Turning to `COc1cc(Nc2cc(Oc3ccc(C)nc3-c3cccc(Cl)c3)ccn2)cc(OC)c1OC` [Example 55, 4-[2-(3-Chlorophenyl)-6-methyl-pyridin-3-yl]oxy-N-(3,4,5-trimethoxyphenyl)-pyridin-2-amine], the figures for the IC50 in test [1] (setting [5]) and in test [3] (setting [6]) were 0.0346 µM and 0.00929 µM, respectively.
For the compound `CCc1ccc(Oc2ccnc(Nc3cc(OC)c(OC)c(OC)c3)c2)c(-c2cccc(C)n2)n1` [Example 3, 4-[6-Ethyl-2-(6-methylpyridin-2-yl)pyridin-3-yl]oxy-N-(3,4,5-trimethoxy-phenyl)pyridin-2-amine], the IC50 in test [1] (setting [5]) turned out to be 0.0459 µM; in test [3] (setting [6]) it was 0.0274 µM.
